Common to all, as to experiment: NCI tumour cell line growth inhibition, 48 h
In assay [1] the test system is SNB-19.
Assay [2] deals with Hs-578T.
Assay [3] has as its system HCT-116.
Assay [4] relates to SNB-75.
Assay [5] concerns OVCAR-8.
For assay [6], the system named is A549.
The test system of assay [7] is NCI/ADR-RES.
For assay [8], the system named is CCRF-CEM.
In assay [9] the test system is NCI-H460.
For assay [10], the system named is ACHN.
Assay [11] deals with SN12C.
In assay [12] the test system is OVCAR-3.
Assay [13] concerns MOLT-4.
Assay [14] relates to SF-295.
Assay [15] relates to SK-MEL-2.
The test system of assay [16] is UACC-62.
For assay [17], the system named is HCC 2998.
Assay [18] deals with A498.
Assay [19] deals with TK-10.

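Step 1: Grow cells in 96-well plates. Step 2: Expose to compound for 48 hours at 5 concentrations. Step 3: Interpolate endpoints linearly; if unreached, use highest concentration. Abbreviation: GI50, concentration required for 50% inhibition of growth.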 Activity calls are given as the source filed them. Rule as the data show it: active = GI50 up to about 1.1 µM and inactive = higher.

As to `NC(CCC(=O)NC(CSC(=O)N(O)c1ccc(Cl)cc1)C(=O)NCC(=O)O)C(=O)O` (stereo unspecified), the GI50 in assay [1], in [2], in assay [3], in [4], in [5] and in assay [6] was > 0.5 µM (active) in each case. Also, the GI50 in [7], in [8], in [9], in assay [10], in assay [11] and in assay [12] was > 0.5 µM (active) each time. Besides, the GI50 in assay [13] is > 0.5 µM (active); in assay [14] it was > 0.5 µM (active); in [15], > 0.5 µM (active); in assay [16], > 0.5 µM (active); in assay [17] it was > 500 nM (active).

In the case of `Brc1ccc(-c2nc(-c3ccc(Br)cc3)n(-c3ccccc3)n2)cc1`, the GI50 in [1] is > 100 µM (inactive); in [2], > 100 µM (inactive); in assay [3] it was 38 µM (inactive); in assay [4], 54.3 µM (inactive); in [5] it was > 100 µM (inactive); in assay [6], 61.8 µM (inactive). Further, the GI50 in assay [7] was > 100 µM (inactive); in assay [8], 20.6 µM (inactive); in [18], > 100 µM (inactive); in [9] it was > 100 µM (inactive); in assay [10], > 100 µM (inactive); in assay [11], > 100 µM (inactive). The GI50 in [19] is > 100 µM (inactive); in [12], > 100 µM (inactive); in [13], 53.7 µM (inactive); in assay [14] it was > 100 µM (inactive); in assay [15], > 100 µM (inactive); in assay [16], > 100 µM (inactive).

In the case of `Cc1nc2c(=O)[nH]ncc2[nH]1`, the GI50 in assay [1] was > 100 µM (inactive); in assay [2] it was > 100 µM (inactive); in [3], > 100 µM (inactive); in assay [4] it was 0.968 µM (active); in assay [5], > 100 µM (inactive); in assay [6], > 100 µM (inactive). The GI50 in assay [7], in [8], in [18], in assay [9], in assay [10] and in assay [11] was > 100 µM (inactive) throughout. Further, the GI50 in assay [19], in assay [12], in assay [13], in [14], in assay [15] and in [16] was > 100 µM (inactive) throughout.

Regarding `COC(=O)C1=C(O)C(C(=O)OC)[C@@]2(O)[C@@H](C(=O)OC)C(c3ccc(OC(=O)/C(=C/c4ccc(Cl)cc4)c4ccc(Cl)cc4)cc3)C[C@@H]1[C@@H]2C(=O)OC` (stereo partly specified), the GI50 was 61.9 µM (inactive) in assay [1]; > 100 µM (inactive) in [2]; 11.3 µM (inactive) in assay [3]; 28.3 µM (inactive) in assay [4]; 41 µM (inactive) in assay [5]; 77.4 µM (inactive) in assay [6]. Besides, the GI50 in [7] was 57.7 µM (inactive); in assay [8], 6.3 µM (inactive); in assay [18], > 100 µM (inactive); in assay [9] it was 14.4 µM (inactive); in assay [10], 32.4 µM (inactive); in assay [11] it was 25.9 µM (inactive). In addition, the GI50 in assay [19] was 16.1 µM (inactive); in assay [12] it was 51.1 µM (inactive); in [13], 4.45 µM (inactive); in [14], 29.8 µM (inactive); in assay [15], 14.3 µM (inactive); in assay [16], 7.29 µM (inactive).

Values taken from ChEMBL document CHEMBL1201862, “PubChem BioAssay data set” (2004).
